According to publication PMC6497546 (Molecular cancer therapeutics, 2019):

Test system: AR42J tumor
Assay: Combination efficacy study with 5-fluorouracil
Assay type: in vivo, mice
Conditions: 5-fluorouracil alone, 15mg/kg once per week for nine weeks; post cell injection

O=c1[nH]cc(F)c(=O)[nH]1 [5-fluorouracil] showed a median survival of 2.4 weeks.
